Measured values: PubChem BioAssay (NCI)
Where “and” joins values, the source holds several entries; their conditions need not be identical. Equal values may be shown once.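 Step 1: Grow cells in 96-well plates. Step 2: Expose to compound for 48 hours at 5 concentrations. Step 3: Interpolate endpoints linearly; if unreached, use highest concentration. Here, GI50 denotes the concentration required for 50% inhibition of growth. The concentration for full growth arrest is given as TGI.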

Key:
Assay in all cases: growth of human tumour cells (NCI), 48 h
CAKI-1 renal = system: CAKI-1 renal
HOP-92 NSCLC = system: HOP-92 NSCLC
IGROV1 ovarian = system: IGROV1 ovarian
M14 melanoma = system: M14 melanoma
MDA-MB-231 breast = system: MDA-MB-231 breast
NCI-H460 lung = system: NCI-H460 lung
OVCAR-3 ovarian = system: OVCAR-3 ovarian
U251 CNS = system: U251 CNS
UACC-62 melanoma = system: UACC-62 melanoma
EKVX NSCLC = system: EKVX NSCLC

SMILES	TGI (CAKI-1 renal) [µM]	TGI (HOP-92 NSCLC) [µM]	TGI (IGROV1 ovarian)	TGI (M14 melanoma) [µM]	TGI (MDA-MB-231 breast) [µM]	TGI (NCI-H460 lung) [µM]	TGI (OVCAR-3 ovarian) [µM]	TGI (U251 CNS) [µM]	TGI (UACC-62 melanoma)	GI50 (CAKI-1 renal) [µM]	GI50 (EKVX NSCLC) [µM]	TGI (EKVX NSCLC) [µM]	GI50 (HOP-92 NSCLC) [µM]	GI50 (IGROV1 ovarian) [µM]	GI50 (MDA-MB-231 breast) [µM]	GI50 (NCI-H460 lung) [µM]	GI50 (OVCAR-3 ovarian) [µM]	GI50 (U251 CNS) [µM]	GI50 (UACC-62 melanoma) [µM]	GI50 (M14 melanoma) [µM]
O=CC(O)C(O)C(OC1OC(CO)C(O)C(O)C1O)C(O)CO (stereo not drawn) (tested in a mixture with another compound)	> 100	> 100	71.9 µM	> 100	91.5	> 100	> 100	> 100	> 100 µM	–	–	–	–	–	–	–	–	–	–	–
O=C(CN(/C=C/C(=O)C(F)(F)F)c1ccccc1)c1ccc(F)cc1	48.9	90.4	79.2 µM	–	42.1	59.3	68.7	69.8	26.9 µM	19.8	49.9	> 100	24.8	21.9	17.7	22.6	25.8	22.9	13	–
COc1ccc2c3c(c(C(=O)O)oc13)C(CCC(=O)O)CC2 (stereo not drawn)	> 100	> 100	> 100 µM	> 100	–	> 100	> 100	> 100	> 100 µM	–	–	> 100	–	–	–	–	–	–	–	–
CCOC(=O)C1=C(C)N(Cc2ccc(Cl)cc2Cl)[C@]2(C#N)C(O)=C(Cl)C(Cl)=C(O)[C@]12C#N	> 100	44.2	> 100 µM	> 100	98.9	> 100	> 100	> 100	–	> 100	> 100	> 100	17.9	> 100	26.7	> 100	46.7	44.8	–	> 100
O=c1c2cccc3cccc(c4n1CCCN=4)c32	> 100	> 100	> 100 µM	> 100	–	> 100	> 100	> 100	> 100 µM	–	–	> 100	–	–	–	–	–	–	–	–
CN(C)CCS(=O)(=O)Nc1cc(-c2ccc3ncnc(Nc4ccc(F)c(Cl)c4)c3c2)cnc1Cl	–	0.513	0.38 µM	> 35.4	1.8	> 100	1.2	2.91	3.4 µM	–	–	–	0.0757	0.0859	0.37	1.04	0.22	0.85	0.938	0.655
CN(C)CCNC(=O)c1cccc2cc3ccc4ccccc4c3nc12	2.14	0.593	1.05 µM	0.41	–	0.163	0.738	0.663	0.23 µM	–	–	0.495	–	–	–	–	–	–	–	–
C=C(C)[C@@H]1CC[C@]2(C(=O)n3ccnc3)CC[C@]3(C)[C@H](CC[C@@H]4[C@@]5(C)CCCNC(C)(C)[C@@H]5CC[C@]43C)[C@@H]12	–	2.96	3.27 µM	3.1	3.3	3.4	3.14	3.14	3.06 µM	–	1.74	4.1	1.49	1.58	1.78	1.76	1.67	1.7	1.6	1.6
CC1CCC2c3c([nH]c4ccccc34)C3C(=O)N(c4ccccc4)C(=O)C3C2C1 (stereo not drawn)	> 250	56.8	57 µM and 130 µM	> 250	–	> 250	> 250	> 250	82.2 µM and > 250 µM	–	–	> 250	–	38.2	–	–	> 250	37.5	22.7	160
CC1=C(C(=O)CC(=O)C(=O)Nc2ccccc2C)Sc2ccccc2N1	> 100	> 100	> 100 µM	> 100	–	> 56.2	> 100	> 100	> 100 µM	–	–	> 100	–	–	–	–	–	–	–	–
CCN(CC)Cc1cc(Nc2cc(C(F)(F)F)c(C#N)c3nc4ccccc4n23)ccc1O	11.2	3.48	–	13.9	5.33	10.7	10.4	6.47	3.96 µM	1.77	0.526	8.39	0.59	–	1.95	1.59	1.83	1.5	1.22	2.73
O=C1c2ccoc2C(=O)c2oc(=O)ccc21	> 62.2	39.8	40 µM	21.8	–	37.1	8.69	20.8	31.5 µM	–	–	35.2	–	–	–	–	–	–	–	–
Cn1cc(NC(=O)c2cc(NC(=O)CCCCCCCC(=O)Nc3cc(C(=O)Nc4cc(C(=O)NCCC(=N)N)n(C)c4)n(C)c3)cn2C)cc1C(=O)NCCC(=N)N	47.5	> 100	25.3 µM	> 100	–	22	65.7	44.6	36.8 µM	–	–	68.2	–	–	–	–	–	–	–	–
CCOC(=O)C1=CSC2=NC3=C(CCC/C3=C\c3cc(OC)c(OC)c(OC)c3)C(c3cc(OC)c(OC)c(OC)c3)N12 (stereo not drawn)	> 100	7.5	–	–	> 100	–	> 100	–	> 100 µM	6.77	> 100	> 100	0.818	–	3.2	–	2.96	–	2.71	–
O=C(/C=C/c1cccc(Oc2ccc(Cl)cc2)c1)c1ccccc1	–	50.1	101 µM	241	89	208	42.8	42	77 µM	–	104	261	21.8	28.1	29.1	60.1	21.1	21.1	26.8	53.1
O=C(Nc1cccc(-n2cc(-c3ccncc3)c(-c3ccc(O)c(Cl)c3)n2)c1)Nc1ccc(Cl)c(Cl)c1	–	3.38	6.78 µM	3.79	> 100	12.4	–	5.61	4.94 µM	–	–	–	0.763	2.35	1.85	2.22	–	1.25	1.99	1.59
Cc1c(C)c2ccc(OC(C)C(=O)O)cc2oc1=O (stereo not drawn)	> 100	> 100	> 100 µM	> 100	–	> 100	> 100	> 100	> 100 µM	–	–	> 100	–	–	–	–	–	–	–	–
